The source of these data is ChEMBL document CHEMBL4325929, “Discovery of Tetrahydropyridopyrimidines as Irreversible Covalent Inhibitors of KRAS-G12C with In Vivo Activity” (ACS Med Chem Lett, 2018).

The target in one data set is GTPase KRas (Homo sapiens, UniProt P01116, G12C). Briefly: Inhibition of KRAS G12C mutant in human NCI-H358 cells assessed as reduction in ERK phosphorylation measured after 3 hrs by Western blot analysis. The class given is cell-based. (In general: A western blot detects proteins with antibodies after separation by electrophoresis.)
The test system of data set [1] is GTPase KRas (Homo sapiens), P01116 [G12C]. Briefly: Binding affinity to KRAS G12C mutant (unknown origin) assessed as covalent modification at 5 uM after 3 hrs by LC-MS analysis relative to control.
Data set [2] shares this test system. Briefly: Binding affinity to KRAS G12C mutant (unknown origin) assessed as covalent modification at 3 uM after 15 mins by LC-MS analysis relative to control.
Data set [3] in a line: Cmax in CD-1 mouse at 100 mg/kg, po. The following applies: in vivo. The class given is ADME, organism-based. The arrangement: dose 100 mg/kg, route oral.
Data set [4] can be described thus: Volume of distribution at steady state in CD-1 mouse at 3 mg/kg, iv. As to conditions: in vivo, read-out: Vdss. The class given is ADME, organism-based.
Data set [5] deals with MDR1. In words: Apparent permeability across basolateral to apical side in pig LLC-PK1 cells expressing MDR1 at 1 uM. The data set is classed as ADME, cell-based, Sus scrofa.
The nature of data set [6]: Plasma concentration in CD-1 mouse at 15 mg/kg, ip measured after 0.5 hrs. The data set is classed as ADME, organism-based.
The subject of data set [7] is Mus musculus. In words: Ex vivo inhibition of KRAS G12C mutant in human MIAPaCa2 cells xenografted in nude-Fox1nu mouse assessed as target engagement in tumor at 30 to 100 mg/kg, ip administered once daily for 1 day measured 3 to 24 hrs post dose relative to control. The data set is classed as functional. The arrangement: scale not given: the % may be the effect or the level left. In general terms: A xenograft is tissue or cells of one species grown in another, often human tumour cells in immunodeficient mice.

Data set [8] has as its system MIA PaCa-2. Briefly: Antitumor activity against human MIAPaCa2 cells xenografted in nude-Fox1nu mouse assessed as tumor regression at 30 to 100 mg/kg, ip administered once daily for 5 days. The class given is functional, organism-based.
A short description of data set [9]: AUC (infinity) in CD-1 mouse at 100 mg/kg, po. The data set is classed as ADME, organism-based. The arrangement: dose 100 mg/kg, time infinity, route oral. The following applies: in vivo.
The nature of data set [10]: Plasma concentration in CD-1 mouse at 50 mg/kg, ip measured after 0.5 hrs. The class given is ADME, organism-based.
The nature of data set [11]: Oral bioavailability in CD-1 mouse at 100 mg/kg. As to conditions: in vivo. The class given is ADME, organism-based.
Data set [12] can be described thus: Plasma concentration in CD-1 mouse at 100 mg/kg, ip measured after 1 hr. The class given is ADME, organism-based.
Data set [13] in a line: Plasma concentration in CD-1 mouse at 100 mg/kg, ip measured after 3 hrs. The class given is ADME, organism-based.
Data set [14] is described as follows: Plasma concentration in CD-1 mouse at 50 mg/kg, ip measured after 1 hr. The class given is ADME, organism-based.
The subject of data set [15] is MIA PaCa-2. In words: Antitumor activity against human MIAPaCa2 cells xenografted in nude-Fox1nu mouse assessed as reduction in tumor volume at 30 to 100 mg/kg, ip administered once daily for 17 days measured three times a week during compound dosing. The class given is functional, organism-based.
Data set [16] has as its system MDR1. Briefly: Apparent permeability across apical to basolateral side in pig LLC-PK1 cells expressing MDR1 at 1 uM. The data set is classed as ADME, cell-based, Sus scrofa.
A short description of data set [17]: Plasma concentration in CD-1 mouse at 100 mg/kg, ip measured after 0.5 hrs. The data set is classed as ADME, organism-based.
Data set [18] is described as follows: Plasma concentration in CD-1 mouse at 15 mg/kg, ip measured after 3 hrs. The data set is classed as ADME, organism-based. The following applies: in vivo, BLD = below limit of detection.
Data set [19] in a line: Plasma concentration in CD-1 mouse at 100 mg/kg, ip measured after 6 hrs. The class given is ADME, organism-based.
Data set [20] is described as follows: Tmax in CD-1 mouse at 100 mg/kg, po. The class given is ADME, organism-based. The following applies: in vivo.
Data set [21] in a line: Clearance in CD-1 mouse at 3 mg/kg, iv. The data set is classed as ADME, organism-based. As to conditions: in vivo.
The nature of data set [22]: Protein binding in CD-1 mouse plasma at 1 uM by equilibrium dialysis method. The class given is ADME, cell-free. As to conditions: read-out: PPB (converted).
A short description of data set [23]: Half life in CD-1 mouse at 3 mg/kg, iv. The class given is ADME, organism-based. As to conditions: in vivo.
In data set [24] the test system is Mus musculus. Briefly: Ex vivo inhibition of KRAS G12C mutant in human MIAPaCa2 cells xenografted in nude-Fox1nu mouse assessed as target engagement in tumor at 30 to 100 mg/kg, ip administered once daily for 5 days measured 3 to 24 hrs post dose relative to control. The arrangement: scale not given: the % may be the effect or the level left. The class given is functional.

The nature of data set [25]: Toxicity in nude-Fox1nu mouse xenografted with human MIAPaCa2 cells assessed as body weight loss at 30 to 100 mg/kg, ip administered once daily for 17 days measured 2 times a week during compound dosing. As to conditions: in vivo, 408 h. The data set is classed as organism-based.
Data set [26] in a line: Toxicity in nude-Fox1nu mouse xenografted with human MIAPaCa2 cells assessed as adverse effect at 30 to 100 mg/kg, ip administered once daily for 17 days measured during compound dosing. The class given is organism-based. As to conditions: in vivo, 408 h.
Data set [27] can be described thus: Plasma concentration in CD-1 mouse at 15 mg/kg, ip measured after 1 hr. The data set is classed as ADME, organism-based.
A short description of data set [28]: Plasma concentration in CD-1 mouse at 50 mg/kg, ip measured after 3 hrs. The class given is ADME, organism-based.

Structures are written as SMILES. Calls of active or inactive are those of the source.

GTPase KRas (Homo sapiens), P01116 [G12C], sequence (P01116 whole entry G12C): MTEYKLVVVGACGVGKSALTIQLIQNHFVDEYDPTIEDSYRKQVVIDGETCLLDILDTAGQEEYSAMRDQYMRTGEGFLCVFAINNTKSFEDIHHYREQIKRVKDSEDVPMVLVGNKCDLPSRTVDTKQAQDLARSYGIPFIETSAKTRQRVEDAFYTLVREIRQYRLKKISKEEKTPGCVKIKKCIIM
GTPase KRas, sequence (P01116 whole entry G12C): as above

For orientation: IC50 means the concentration at which inhibition is half-maximal. As to `C=CC(=O)N1CCN(c2ncnc3c2CCN(c2c(C)ccc4[nH]ncc24)C3)CC1`, on GTPase KRas, the half-inhibitory concentration (IC50) was above 16 µM. In addition, the Activity in [1] was 22%.
In the same order, the values of `C=CC(=O)N1CCN(c2ncnc3c2CCN(c2cc(O)ccc2F)C3)CC1` are above 16 µM and 2%.
In the case of `C=CC(=O)N1CCN(c2nc(OCCN(C)C)nc3c2CCN(c2cc(O)cc4ccccc24)C3)CC1`, the IC50 at GTPase KRas turned out to be 1.9 µM. The Activity in [2] stood at 52%.
As for `C=CC(=O)N1CCN(c2ncnc3c2CCN(c2cccc4ccccc24)C3)CC1`, the half-inhibitory concentration (IC50) on GTPase KRas is above 16 µM. Besides, the Activity in data set [1] was 13%.
Consider `C=CC(=O)N1CCN(c2ncnc3c2CCN(c2c(O)cccc2F)C3)CC1`, for which, on GTPase KRas, the half-inhibitory concentration (IC50) is above 16 µM. For the same molecule, the Activity in [1] was found to be 2%.
Consider `C=CC(=O)N1CCN(c2ncnc3c2CCN(c2cc(O)cc4ccccc24)C3)CC1`, for which the 50% inhibitory concentration (IC50) at GTPase KRas turned out to be 7.6 µM. Besides, the values for the Activity in data set [1] and in data set [2] were 99% and 8%, respectively.
`C=CC(=O)N1CCN(c2ncnc3c2CCN(c2cccc4ccc(O)cc24)C3)CC1`: the half-maximal inhibitory concentration (IC50) on GTPase KRas was above 16 µM. The Activity in data set [1] worked out at 0%.
`C=CC(=O)N1CCN(c2nc(O[C@@H](C)CN(C)C)nc3c2CCN(c2cc(O)cc4ccccc24)C3)CC1`: at GTPase KRas, the IC50 stood at 0.54 µM. Also, the Activity in data set [2] stood at 21%.
As to `C=CC(=O)N1CCN(c2nc(OCCCN(C)C)nc3c2CCN(c2cc(O)cc4ccccc24)C3)CC1`, the IC50 on GTPase KRas worked out at 1.5 µM. The Activity in data set [2] is 22%.
Broadly, the Cmax is the maximum level reached in the sampled fluid or tissue. As usually defined, the Papp B→A is how fast a substance crosses the layer from the basolateral side. One may read the AUC(0-inf) as the area under the concentration-time curve extrapolated to infinity. One may read the bioavailability as the share of a dose that reaches the circulation, judged against a reference dose that is usually intravenous. A word on the Papp A→B: it is how fast a substance crosses the layer from the apical side. The term Tmax denotes the time at which the peak concentration occurs. For orientation: clearance means the volume of plasma or blood freed of the substance per unit of time. What is called half-life is the time needed for the level to fall by half in the phase considered. Turning to `C=CC(=O)N1CCN(c2nc(OC[C@@H]3CCCN3C)nc3c2CCN(c2cc(O)cc4ccccc24)C3)CC1`, the Cmax in [3] is 590 ng/mL. Also, the Vd in [4] stood at 0.53 L/kg. Also, the Papp B→A at 1 µM in the data set with MDR1 [5] amounted to 37 ×10⁻⁶ cm/s. The figures for the concentration at 0.5 h in [6], in data set [10] and in data set [17] were 1500 ng/mL, 8300 ng/mL and 26000 ng/mL, respectively. The Activity in the data set on Mus musculus [7] was above 65%; in the data set with Mus musculus [24] it was above 65%; in data set [2], 84%; in data set [25], “Non-Toxic”; in data set [26], “Non-Toxic”. The outcome in the data set with MIA PaCa-2 [8] and in the data set with MIA PaCa-2 [15] was Active. Besides, in [9], the total exposure AUC(0-inf) stood at 880 ng·h/mL. In data set [11], this molecule displayed a bioavailability of 2.4%. In addition, the concentration at 1 h in data set [12] was 17000 ng/mL; in data set [14], 2600 ng/mL; in data set [27], 970 ng/mL. Besides, the values for the concentration at 3 h in [13] and in data set [28] were 1400 ng/mL and 250 ng/mL, respectively. The apparent permeability from apical to basolateral (Papp A→B) at 1 µM in the data set on MDR1 [16] is 1.4 ×10⁻⁶ cm/s. Also, in data set [18], the Cp result was “Bld”. The molecule further yielded a concentration at 6 h in data set [19] of 1300 ng/mL. In data set [20], the Tmax worked out at 60 min. The molecule also yielded a clearance in data set [21] of 46 mL/min/kg. Also, the fraction unbound at 1 µM in data set [22] was 0.05. The same molecule showed a half-life in data set [23] of 57.6 min.
